Data taken from patent US20230143612A1 (Arbutus Biopharma Corporation, priority 2020, published 2023).

biological target: PD-L1 His protein / PD-1 Fc protein (Homo sapiens, UniProt Q9NZQ7); assay: HTRF Assay (PD-1/PD-L1 interaction); assay type: binding; settings: PD-L1 His 6 nM, PD-1 Fc 6 nM
Procedure, shortened: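 HTRF: PD-L1 His (6 nM final), compound (3-fold dilutions, 20 μM to 0.001 μM final) and PD-1 Fc (6 nM final) preincubated 15 min at room temperature. Anti-human IgG-XL665 and anti-6HIS Tb cryptate (mixed at 6.7 nM and 0.35 nM) then added for 1 h at room temperature before reading.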

PD-L1 His protein / PD-1 Fc protein, sequence (Q9NZQ7 19-238 limits assumed): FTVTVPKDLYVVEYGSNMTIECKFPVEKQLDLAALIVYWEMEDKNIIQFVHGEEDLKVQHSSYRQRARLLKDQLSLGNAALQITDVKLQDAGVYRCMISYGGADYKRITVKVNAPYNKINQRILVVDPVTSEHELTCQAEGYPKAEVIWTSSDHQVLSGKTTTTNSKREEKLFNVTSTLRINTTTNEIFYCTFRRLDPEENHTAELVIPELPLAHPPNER

Question: How did the IC50 turn out when COc1nc(-c2cccc(-c3cccc(-c4ccn5c(=O)c(CNC6(CC(=O)O)CC6)cnc5c4)c3Cl)c2Cl)ccc1CNC[C@@H]1CCC(=O)N1 [Example 139, (S)-2-(1-(((8-(2,2′-Dichloro-3′-(6-methoxy-5-((((5-oxopyrrolidin-2-yl)methyl)amino)methyl)-pyridin-2-yl)-[1,1′-biphenyl]-3-yl)-4-oxo-4H-pyrido[1,2-a]pyrimidin-3-yl)methyl)amino)-cyclopropyl)acetic acid] was run?
Answer: Its IC50 is 0.4 nM.

Question: COc1nc(-c2cccc(-c3cccc(-c4ccn5c(=O)c(CNC[C@@H]6CCC(=O)N6)cnc5c4)c3Cl)c2Cl)ccc1CN1CC(CO)(CO)C1 [Example 159, (S)-8-(3′-(5-((3,3-Bis(hydroxymethyl)azetidin-1-yl)methyl)-6-methoxypyridin-2-yl)-2,2′-dichloro-[1,1′-biphenyl]-3-yl)-3-((((5-oxopyrrolidin-2-yl)methyl)amino)methyl)-4H-pyrido[1,2-a]pyrimidin-4-one] was tested. Which IC50 did it give?
Answer: The IC50 was 1.3 nM.

Question: With COc1nc(-c2cccc(-c3cccc(-c4ccn5c(=O)c(CNCCO)cnc5c4)c3Cl)c2Cl)ccc1CNCCO [Example 75, 8-(2,2′-Dichloro-3′-(5-(((2-hydroxyethyl)amino)methyl)-6-methoxypyridin-2-yl)-[1,1′-biphenyl]-3-yl)-3-(((2-hydroxyethyl)amino)methyl)-4H-pyrido[1,2-a]pyrimidin-4-one] as the compound, how does the IC50 read?
Answer: Its IC50 is 3.4 nM.

Question: How did the IC50 turn out when CNCCCOc1cc(C)c2nc(-c3cccc(-c4cccc(-c5cc(=O)n6cc(OCCCNC)cc(C)c6n5)c4Cl)c3Cl)cc(=O)n2c1 [Example 35, 2,2′-(2,2′-Dichloro-[1,1′-biphenyl]-3,3′-diyl)bis(9-methyl-7-(3-(methylamino)propoxy)-4H-pyrido[1,2-a]pyrimidin-4-one)] was run?
Answer: The IC50 was 350 nM.

Question: How did the IC50 turn out when COc1nc(-c2cccc(-c3cccc(-c4ccn5c(=O)c(CN(C)CCN)cnc5c4)c3Cl)c2Cl)ccc1CNC[C@@H]1CCC(=O)N1 [Example 279, (S)-3-(((2-aminoethyl)(methyl)amino)methyl)-8-(2,2′-dichloro-3′-(6-methoxy-5-((((5-oxopyrrolidin-2-yl)methyl)amino)methyl)pyridin-2-yl)-[1,1′-biphenyl]-3-yl)-4H-pyrido[1,2-a]pyrimidin-4-one] was run?
Answer: The IC50 was 0.1 nM.

Question: With COc1nc(-c2cccc(-c3cccc(-c4ccn5c(=O)c(CN[C@H]6C[C@](C)(O)C6)c(C)nc5c4)c3Cl)c2Cl)ccc1CNC[C@@H]1CCC(=O)N1 [Example 204, 8-(2,2′-Dichloro-3′-(6-methoxy-5-(((((S)-5-oxopyrrolidin-2-yl)methyl)amino)methyl)pyridin-2-yl)-[1,1′-biphenyl]-3-yl)-3-((((1r,3r)-3-hydroxy-3-methylcyclobutyl)amino)methyl)-2-methyl-4H-pyrido[1,2-a]pyrimidin-4-one] as the compound, how does the IC50 read?
Answer: The IC50 was 0.1 nM.

Question: For COc1nc(-c2cccc(-c3cccc(-c4ccc5c(CNCCN6CCCC6=O)cn(C)c5n4)c3Cl)c2Cl)ccc1CNC[C@@H]1CCC(=O)N1 [Example 414, 1-[2-[[6-[2-Chloro-3-[2-chloro-3-[6-methoxy-5-[[[(2S)-5-oxopyrrolidin-2-yl]methylamino]methyl]-2-pyridyl]phenyl]phenyl]-1-methyl-pyrrolo[2,3-b]pyridin-3-yl]methylamino]ethyl]pyrrolidin-2-one], which IC50 is on record?
Answer: The IC50 was 170 nM.

Question: For COc1nc(-c2cccc(-c3cccc(-c4cc5c(=O)n(C)c(CNC6CCN(C(C)=O)CC6)nn5c4)c3Cl)c2Cl)ccc1CNC[C@@H]1CCC(=O)N1 [Example 457, 2-[[(1-Acetyl-4-piperidyl)amino]methyl]-6-[2-chloro-3-[2-chloro-3-[6-methoxy-5-[[[(2S)-5-oxopyrrolidin-2-yl]methylamino]methyl]-2-pyridyl]phenyl]phenyl]-3-methyl-pyrrolo[2,1-f][1,2,4]triazin-4-one], which IC50 is on record?
Answer: Its IC50 is 190 nM.

Question: COc1nc(-c2cccc(-c3cccc(-c4cc5c(=O)n(C)c(CNC6CC(C)(O)C6)nn5c4)c3Cl)c2Cl)cc(F)c1CNC[C@@H]1CCC(=O)N1 (stereo partly drawn) [compound 480, (S)-6-(2,2′-dichloro-3′-(4-fluoro-6-methoxy-5-((((5-oxopyrrolidin-2-yl)methyl)amino)methyl)pyridin-2-yl)-[1,1′-biphenyl]-3-yl)-2-(((3-hydroxy-3-methylcyclobutyl)amino)methyl)-3-methylpyrrolo[2,1-f][1,2,4]triazin-4(3H)-one] was tested. Which IC50 did it give?
Answer: The IC50 was 69 nM.

Question: With COc1nc(-c2cccc(-c3cccc(-c4cc5c(=O)n(C)c(CN[C@H]6C[C@](C)(O)C6)nn5c4)c3Cl)c2Cl)cc(Cl)c1CNC[C@@H]1CCC(=O)N1 [Example 464, 6-(2,2′-dichloro-3′-(4-chloro-6-methoxy-5-(((((S)-5-oxopyrrolidin-2-yl)methyl)amino)methyl)pyridin-2-yl)-[1,1′-biphenyl]-3-yl)-2-((((1r,3r)-3-hydroxy-3-methylcyclobutyl)amino)methyl)-3-methylpyrrolo[2,1-f][1,2,4]triazin-4(3H)-one] as the compound, how does the IC50 read?
Answer: Its IC50 is 7.5 nM.

Question: How did the IC50 turn out when COc1nc(-c2cccc(-c3cccc(-c4cc5c(=O)n(C)c(CN6CC7(CCC(=O)N7)C6)nn5c4)c3Cl)c2Cl)ccc1CNC[C@@H]1CCC(=O)N1 [Example 448, 6-[2-Chloro-3-[2-chloro-3-[6-methoxy-5-[[[(2S)-5-oxopyrrolidin-2-yl]methylamino]methyl]-2-pyridyl]phenyl]phenyl]-3-methyl-2-[(6-oxo-2,5-diazaspiro[3.4]octan-2-yl)methyl]pyrrolo [2,1-f][1,2,4]triazin-4-one] was run?
Answer: The IC50 was 6.8 nM.

Question: How did the IC50 turn out when COc1nc(-c2cccc(-c3cccc(-c4ccn5c(=O)c(CNC[C@H](C)O)cnc5c4)c3Cl)c2Cl)ccc1CNC[C@H](C)O [Example 185, 8-(2,2′-Dichloro-3′-(5-((((S)-2-hydroxypropyl)amino)methyl)-6-methoxypyridin-2-yl)-[1,1′-biphenyl]-3-yl)-3-((((S)-2-hydroxypropyl)amino)methyl)-4H-pyrido[1,2-a]pyrimidin-4-one] was run?
Answer: The IC50 was 1.2 nM.

Question: How did the IC50 turn out when COc1nc(-c2cccc(-c3cccc(-c4ccn5c(=O)c(CNCC6NC(=O)CC6(C)C)cnc5c4)c3Cl)c2Cl)ccc1CNC[C@@H]1CCC(=O)N1 (stereo partly drawn) [Example 359, 8-(2,2′-dichloro-3′-(6-methoxy-5-(((((S)-5-oxopyrrolidin-2-yl)methyl)-amino)-methyl)-pyridin-2-yl)-[1,1′-biphenyl]-3-yl)-3-((((3,3-dimethyl-5-oxopyrrolidin-2-yl)methyl)amino)methyl)-4H-pyrido[1,2-a]pyrimidin-4-one] was run?
Answer: Its IC50 is 67 nM.

Question: How did the IC50 turn out when COc1nc(-c2cccc(-c3cccc(-c4ccc5c(n4)CCC[C@@H]5NC[C@@H]4CCC(=O)N4)c3Cl)c2Cl)ccc1CNC[C@@H]1CCC(=O)N1 [Example 435, (S)-5-((((6-(2,2′-Dichloro-3′-((S)-5-((((S)-5-oxopyrrolidin-2-yl)methyl)amino)-5,6,7,8-tetrahydroquinolin-2-yl)-[1,1′-biphenyl]-3-yl)-2-methoxypyridin-3-yl)methyl)amino)methyl)pyrrolidin-2-one] was run?
Answer: Its IC50 is 23 nM.

Question: For COC(=O)[C@H]1CCN(Cc2cnc3cc(-c4cccc(-c5cccc(-c6ccc(CNC[C@@H]7CCC(=O)N7)c(OC)n6)c5Cl)c4Cl)cc(C)n3c2=O)C1 [Example 295, (S)-Methyl 1-((8-(2,2′-dichloro-3′-(6-methoxy-5-(((((S)-5-oxopyrrolidin-2-yl)methyl)amino)methyl)pyridin-2-yl)-[1,1′-biphenyl]-3-yl)-6-methyl-4-oxo-4H-pyrido[1,2-a]pyrimidin-3-yl)methyl)pyrrolidine-3-carboxylate], which IC50 is on record?
Answer: The IC50 was 0.1 nM.

Question: Which IC50 does the source give for COc1nc(-c2cccc(-c3cccc(-c4cc5c(=O)n(C)c(CNCCO)nn5c4)c3Cl)c2Cl)ccc1CNC[C@@H]1CCC(=O)N1 [Example 351, (S)-6-(2,2′-Dichloro-3′-(6-methoxy-5-((((5-oxopyrrolidin-2-yl)methyl)amino)methyl)pyridin-2-yl)-[1,1′-biphenyl]-3-yl)-2-(((2-hydroxyethyl)amino)methyl)-3-methylpyrrolo[2,1-f][1,2,4]triazin-4(3H)-one] here?
Answer: The IC50 was 200 nM.

Question: With COc1ccc(CNCc2cnc3cc(-c4cccc(-c5cccc(-c6ccc(CNC[C@@H]7CCC(=O)N7)c(OC)n6)c5Cl)c4Cl)ccn3c2=O)c(OC)c1 [Example 138, (S)-8-(2,2′-Dichloro-3′-(6-methoxy-5-((((5-oxopyrrolidin-2-yl)methyl)amino)methyl)pyridin-2-yl)-[1,1′-biphenyl]-3-yl)-3-(((2,4-dimethoxybenzyl)amino)methyl)-4H-pyrido[1,2-a]pyrimidin-4-one] as the compound, how does the IC50 read?
Answer: Its IC50 is 1.4 nM.

Question: With O=C1CC[C@@H](CNC2COc3nc(-c4cccc(-c5cccc(-c6ccc7c(n6)OCC7NC[C@@H]6CCC(=O)N6)c5Cl)c4Cl)ccc32)N1 (stereo partly drawn) [Example 44, (5S,5'S)-5,5′-((((2,2′-Dichloro-[1,1′-biphenyl]-3,3′-diyl)bis(2,3-dihydrofuro[2,3-b]pyridine-6,3-diyl))bis(azanediyl))bis(methylene))bis(pyrrolidin-2-one)] as the compound, how does the IC50 read?
Answer: Its IC50 is 550 nM.

Question: For COc1nc(-c2cccc(-c3cccc(-c4ccn5c(=O)c(CNC[C@@H]6CCC(=O)N6)cnc5c4)c3Cl)c2Cl)cc(F)c1CNC[C@@H]1CCC(=O)N1 [Example 147, 8-(2,2′-Dichloro-3′-(4-fluoro-6-methoxy-5-(((((S)-5-oxopyrrolidin-2-yl)methyl)amino)methyl)pyridin-2-yl)-[1,1′-biphenyl]-3-yl)-3-(((((S)-5-oxopyrrolidin-2-yl)methyl)amino)methyl)-4H-pyrido[1,2-a]pyrimidin-4-one], which IC50 is on record?
Answer: Its IC50 is 3.9 nM.

Question: For COc1nc(-c2cccc(-c3cccc(-c4ccn5c(=O)c(CNC[C@@H]6CCC(=O)N6)c(C)nc5c4)c3Cl)c2Cl)ccc1CNC[C@@H]1CCC(=O)N1 [Example 164, 8-(2,2′-Dichloro-3′-(6-methoxy-5-(((((S)-5-oxopyrrolidin-2-yl)methyl)amino)methyl)pyridin-2-yl)-[1,1′-biphenyl]-3-yl)-2-methyl-3-(((((S)-5-oxopyrrolidin-2-yl)methyl)amino)methyl)-4H-pyrido[1,2-a]pyrimidin-4-one], which IC50 is on record?
Answer: Its IC50 is 1.3 nM.
